Biological target: T1, human progesterone receptor A (Homo sapiens, UniProt P06401)
T1 construct: expressed in transfected cells; host or cells: SK-N-MC human neuroblastoma cells, stably transfected
T1 sequence (P06401 1-769 isoform P06401-2): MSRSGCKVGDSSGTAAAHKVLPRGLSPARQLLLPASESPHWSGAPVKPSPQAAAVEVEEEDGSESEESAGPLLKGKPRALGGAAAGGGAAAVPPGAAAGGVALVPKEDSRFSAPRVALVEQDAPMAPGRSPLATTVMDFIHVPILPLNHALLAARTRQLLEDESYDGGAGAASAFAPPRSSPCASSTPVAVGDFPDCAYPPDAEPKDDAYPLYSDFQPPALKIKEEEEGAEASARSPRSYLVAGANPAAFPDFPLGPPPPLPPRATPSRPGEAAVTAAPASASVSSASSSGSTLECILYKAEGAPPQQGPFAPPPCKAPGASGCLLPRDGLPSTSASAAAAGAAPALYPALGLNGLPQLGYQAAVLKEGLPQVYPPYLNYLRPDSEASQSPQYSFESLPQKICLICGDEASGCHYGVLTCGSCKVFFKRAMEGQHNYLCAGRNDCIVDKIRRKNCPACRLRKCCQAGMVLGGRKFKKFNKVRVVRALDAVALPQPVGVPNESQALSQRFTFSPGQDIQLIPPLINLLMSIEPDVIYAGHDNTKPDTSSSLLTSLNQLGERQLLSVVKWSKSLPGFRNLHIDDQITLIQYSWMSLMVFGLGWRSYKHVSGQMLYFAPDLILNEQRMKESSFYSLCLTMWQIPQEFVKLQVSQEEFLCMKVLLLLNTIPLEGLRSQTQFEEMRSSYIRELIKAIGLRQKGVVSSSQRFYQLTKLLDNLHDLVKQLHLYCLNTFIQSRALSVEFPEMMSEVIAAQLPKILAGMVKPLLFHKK
Assay: Progesterone-receptor-antagonistic action in stably transfected SK-N-MC cells, MTV-LUC reporter (PR-A)
Assay type: cell-based
Conditions: antagonistic potency vs 0.1 nmol/l promegestone, 24 hours, luciferase
Protocol: Progesterone-Receptor-Antagonistic Action in Stable Transfectants of Human Neuroblastoma Cells (SK-N-MC Cells) with the Human Progesterone A or Progesterone B Receptor and an MTV-LUC Reporter Construct
SK-N-MC cells (human neuroblastoma cells) that have been stably transfected with plasmids that express the human progesterone receptor B (pRChPR-B-neo) or the human progesterone receptor A (pRChPR-A-neo) and a reporter construct (pMMTV-LUC), were incubated for 24 hours either in the absence (negative control) or in the presence of increasing amounts of the particular test compound (0.01 nmol/l, 0.1 nmol/l, 1 nmol/l, 10 nmol/l, 100 nmol/l and 1 μmol/l), to determine the agonistic efficacy. As positive control of reporter gene induction, the cells were treated with the synthetic gestagen promegestone (0.01 nmol/l, 0.1 nmol/l, 1 nmol/l, 10 nmol/l, 100 nmol/l and 1 μmol/l). For determination of the antagonistic activity, the cells were treated with 0.1 nmol/l promegestone and additionally with increasing amounts of the particular test compound (0.01 nmol/l, 0.1 nmol/l, 1 nmol/l, 10 nmol/l, 100 nmol/l and 1 μmol/l). The activity of the reporter gene LUC (LUC=luciferase) was determined in the cell lysates and was measured as RLU (relative light units). All measured values are given as % efficacy and as EC50 or IC50 concentrations.

Row | IC50 [nM] | Structure (SMILES)
1 | 6.98 | CN(Cc1ccncc1)C(=O)c1ccc([C@H]2C[C@@]3(C)[C@@H](CC[C@@]3(O)C(F)(F)C(F)(F)F)[C@@H]3CCC4=CC(=O)CCC4=C32)cc1 [Example 33, 4-[(11β,17β)-17-hydroxy-3-oxo-17-(pentafluoroethyl)estra-4,9-dien-11-yl]-N-methyl-N-(pyridin-4-ylmethyl)benzamide]
2 | 133 | CCN(CC)C(=O)c1ccc([C@H]2C[C@@]3(C)[C@@H](CC[C@@]3(O)C(F)(F)C(F)(F)F)[C@@H]3CCC4=CC(=O)CCC4=C32)cc1 [Example 27, N,N-diethyl-4-[(11β,17β)-17-hydroxy-3-oxo-17-(pentafluoroethyl)estra-4,9-dien-11-yl]benzamide]
3 | 39 | C[C@]12C[C@H](c3ccc(C(=O)N4CCOCC4)cc3)C3=C4CCC(=O)C=C4CC[C@H]3[C@@H]1CC[C@@]2(O)C(F)(F)C(F)(F)F [Example 29, (11β,17β)-17-hydroxy-11-[4-(morpholin-4-ylcarbonyl)phenyl]-17-(pentafluoroethyl)estra-4,9-dien-3-one]
4 | 0.42 | C[C@]12C[C@H](c3ccc(C(=O)Nc4ccncc4)cc3)C3=C4CCC(=O)C=C4CC[C@H]3[C@@H]1CC[C@@]2(O)C(F)(F)C(F)(F)F [Example 14, 4-[(11β,17β)-17-hydroxy-3-oxo-17-(pentafluoroethyl)estra-4,9-dien-11-yl]-N-(pyridin-4-yl)benzamide]
5 | 14.4 | C[C@]12C[C@H](c3ccc(C(=O)NCc4ccccc4)cc3)C3=C4CCC(=O)C=C4CC[C@H]3[C@@H]1CC[C@@]2(O)C(F)(F)C(F)(F)F [Example 34, N-benzyl-4-[(11β,17β)-17-hydroxy-3-oxo-17-(pentafluoroethyl)estra-4,9-dien-11-yl]benzamide]
6 | 3.7 | COc1cccc(NC(=O)c2ccc([C@H]3C[C@@]4(C)[C@@H](CC[C@@]4(O)C(F)(F)C(F)(F)F)[C@@H]4CCC5=CC(=O)CCC5=C43)cc2)c1 [Example 24, 4-[(11β,17β)-17-hydroxy-3-oxo-17-(pentafluoroethyl)estra-4,9-dien-11-yl]-N-(3-methoxyphenyl)benzamide]
7 | 6.9 | C[C@]12C[C@H](c3ccc(C(=O)NCC4CC4)cc3)C3=C4CCC(=O)C=C4CC[C@H]3[C@@H]1CC[C@@]2(O)C(F)(F)C(F)(F)F [Example 59, N-(cyclopropylmethyl)-4-[(11β,17β)-17-hydroxy-3-oxo-17-(pentafluoroethyl)estra-4,9-dien-11-yl]benzamide]
8 | 0.71 | CC(=O)Nc1ccc(NC(=O)c2ccc([C@H]3C[C@@]4(C)[C@@H](CC[C@@]4(O)C(F)(F)C(F)(F)F)[C@@H]4CCC5=CC(=O)CCC5=C43)cc2)cc1 [Example 52, N-(4-acetamidophenyl)-4-[(11β,17β)-17-hydroxy-3-oxo-17-(pentafluoroethyl)estra-4,9-dien-11-yl]benzamide]
9 | 1.6 | C[C@]12C[C@H](c3ccc(C(=O)NCCc4ccccn4)cc3)C3=C4CCC(=O)C=C4CC[C@H]3[C@@H]1CC[C@@]2(O)C(F)(F)C(F)(F)F [Example 61, 4-[(11β,17β)-17-hydroxy-3-oxo-17-(pentafluoroethyl)estra-4,9-dien-11-yl]-N-[2-(pyridin-2-yl)ethyl]benzamide]
10 | 10.8 | CN(CCc1ccccc1)C(=O)c1ccc([C@H]2C[C@@]3(C)[C@@H](CC[C@@]3(O)C(F)(F)C(F)(F)F)[C@@H]3CCC4=CC(=O)CCC4=C32)cc1 [Example 43, 4-[(11β,17β)-17-hydroxy-3-oxo-17-(pentafluoroethyl)estra-4,9-dien-11-yl]-N-methyl-N-(2-phenylethyl)benzamide]
11 | 1.88 | COC(=O)c1ccc(NC(=O)c2ccc([C@H]3C[C@@]4(C)[C@@H](CC[C@@]4(O)C(F)(F)C(F)(F)F)[C@@H]4CCC5=CC(=O)CCC5=C43)cc2)cc1 [Example 38, methyl-4-({4-[(11β,17β)-17-hydroxy-3-oxo-17-(pentafluoroethyl)estra-4,9-dien-11-yl]benzoyl}amino)benzoate]
12 | 375 | CN(Cc1cccnc1)C(=O)c1ccc([C@H]2C[C@@]3(C)[C@@H](CC[C@@]3(O)C(F)(F)C(F)(F)F)[C@@H]3CCC4=CC(=O)CCC4=C32)cc1 [Example 32, 4-[(11β,17β)-17-hydroxy-3-oxo-17-(pentafluoroethyl)estra-4,9-dien-11-yl]-N-methyl-N-(pyridin-3-ylmethyl)benzamide]
13 | 5.7 | CN(CCc1ccncc1)C(=O)c1ccc([C@H]2C[C@@]3(C)[C@@H](CC[C@@]3(O)C(F)(F)C(F)(F)F)[C@@H]3CCC4=CC(=O)CCC4=C32)cc1 [Example 58, 4-[(11β,17β)-17-hydroxy-3-oxo-17-(pentafluoroethyl)estra-4,9-dien-11-yl]-N-methyl-N-[2-(pyridin-4-yl)ethyl]benzamide]
14 | 6.3 | C[C@]12C[C@H](c3ccc(C(=O)N4CCN(S(C)(=O)=O)CC4)cc3)C3=C4CCC(=O)C=C4CC[C@H]3[C@@H]1CC[C@@]2(O)C(F)(F)C(F)(F)F [Example 67, (11β,17β)-17-hydroxy-11-(4-{[4-(methylsulphonyl)piperazin-1-yl]carbonyl}phenyl)-17-(pentafluoroethyl)estra-4,9-dien-3-one]
15 | 25 | C[C@]12C[C@H](c3ccc(C(=O)N4CCN(CCc5ccccc5)CC4)cc3)C3=C4CCC(=O)C=C4CC[C@H]3[C@@H]1CC[C@@]2(O)C(F)(F)C(F)(F)F [Example 44, (11β,17β)-17-hydroxy-17-(pentafluoroethyl)-11-(4-{[4-(2-phenylethyl)piperazin-1-yl]carbonyl}phenyl)estra-4,9-dien-3-one]
16 | 346 | CN(C)CCN1CCN(C(=O)c2ccc([C@H]3C[C@@]4(C)[C@@H](CC[C@@]4(O)C(F)(F)C(F)(F)F)[C@@H]4CCC5=CC(=O)CCC5=C43)cc2)CC1 [Example 47, (11β,17β)-11-[4-({4-[2-(dimethylamino)ethyl]piperazin-1-yl}carbonyl)phenyl]-17-hydroxy-17-(pentafluoroethyl)estra-4,9-dien-3-one]
17 | 4.1 | C[C@]12C[C@H](c3ccc(C(=O)N4CCC(c5ccccc5)CC4)cc3)C3=C4CCC(=O)C=C4CC[C@H]3[C@@H]1CC[C@@]2(O)C(F)(F)C(F)(F)F [Example 63, (11β,17β)-17-hydroxy-17-(pentafluoroethyl)-11-{4-[(4-phenylpiperidin-1-yl)carbonyl]phenyl}estra-4,9-dien-3-one]
18 | 9 | CN(Cc1ccccc1)C(=O)c1ccc([C@H]2C[C@@]3(C)[C@@H](CC[C@@]3(O)C(F)(F)C(F)(F)F)[C@@H]3CCC4=CC(=O)CCC4=C32)cc1 [Example 51, N-benzyl-4-[(11β,17β)-17-hydroxy-3-oxo-17-(pentafluoroethyl)estra-4,9-dien-11-yl]-N-methylbenzamide]
19 | 29 | COc1cccc(CNC(=O)c2ccc([C@H]3C[C@@]4(C)[C@@H](CC[C@@]4(O)C(F)(F)C(F)(F)F)[C@@H]4CCC5=CC(=O)CCC5=C43)cc2)c1 [Example 53, 4-[(11β,17β)-17-hydroxy-3-oxo-17-(pentafluoroethyl)estra-4,9-dien-11-yl]-N-(3-methoxybenzyl)benzamide]
20 | 1.32 | C[C@]12C[C@H](c3ccc(C(=O)Nc4cccnc4)cc3)C3=C4CCC(=O)C=C4CC[C@H]3[C@@H]1CC[C@@]2(O)C(F)(F)C(F)(F)F [Example 12, 4-[(11β,17β)-17-hydroxy-3-oxo-17-(pentafluoroethyl)estra-4,9-dien-11-yl]-N-(pyridin-3-yl)benzamide]
21 | 35 | CN(C)C(=O)N1CCN(C(=O)c2ccc([C@H]3C[C@@]4(C)[C@@H](CC[C@@]4(O)C(F)(F)C(F)(F)F)[C@@H]4CCC5=CC(=O)CCC5=C43)cc2)CC1 [Example 66, 4-{4-[(11β,17β)-17-hydroxy-3-oxo-17-(pentafluoroethyl)estra-4,9-dien-11-yl]benzoyl}-N,N-dimethylpiperazine-1-carboxamide]

— patent US9109004B2, “Progesterone receptor antagonists” (Bayer Intellectual Property GmbH, priority 2010, dated 2015)
